Laboratory results as given in article PMC3376194 (Pharmacogenetics and Genomics, 2012).
Values joined by “and” are separate entries in the source; they are usually repeats but may differ in a detail not shown here. Equal entries are not always repeated. Where two headings read alike, the source gives them in different places.

How the values were obtained:
COX-1 = details: cited from earlier work
[1] = target: T1, R108Q variant of human PGHS-1 (Homo sapiens, UniProt P23219, R108Q); test: Timed preincubation with aspirin, decay of surviving COX activity; format: biochemical
T1 sequence (P23219 24-599 R108Q): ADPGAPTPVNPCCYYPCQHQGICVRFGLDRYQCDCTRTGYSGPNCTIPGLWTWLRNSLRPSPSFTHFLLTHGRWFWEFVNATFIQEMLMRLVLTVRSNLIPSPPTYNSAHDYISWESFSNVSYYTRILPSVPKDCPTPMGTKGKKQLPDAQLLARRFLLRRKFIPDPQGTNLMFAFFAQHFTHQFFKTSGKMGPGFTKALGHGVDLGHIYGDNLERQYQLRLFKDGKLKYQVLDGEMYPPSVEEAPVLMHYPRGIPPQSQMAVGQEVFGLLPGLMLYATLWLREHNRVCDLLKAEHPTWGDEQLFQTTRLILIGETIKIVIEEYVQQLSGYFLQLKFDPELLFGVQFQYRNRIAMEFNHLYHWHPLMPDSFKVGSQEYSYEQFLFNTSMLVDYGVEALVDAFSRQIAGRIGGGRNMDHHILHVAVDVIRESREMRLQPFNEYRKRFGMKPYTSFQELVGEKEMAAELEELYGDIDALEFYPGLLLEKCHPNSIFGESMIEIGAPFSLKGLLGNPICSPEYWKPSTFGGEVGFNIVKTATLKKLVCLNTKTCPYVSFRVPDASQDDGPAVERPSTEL

wildtype human PGHS-1 [2] = target: T2, wildtype human PGHS-1 (Homo sapiens, UniProt P23219); test: as above; format: biochemical; details: WT; 37 °C; preincubation with 0.4-5.3 mM aspirin; average ± SD
T2 sequence (P23219 24-599): as the sequence (P23219 24-599 R108Q) above, with Q85R counted along it

[3] = hydrolysis in blood; cited from earlier work
[4] = ingestion of 500-650 mg aspirin; cited from earlier work
PGHS-1 V481I variant [5] = target: T3, PGHS-1 V481I variant (Homo sapiens, UniProt P23219, V481I); test: Timed preincubation with aspirin, decay of surviving COX activity; format: biochemical; details: 37 °C, preincubation with 0.4-5.3 mM aspirin, average ± SD
T3 sequence (P23219 24-599 V481I): as the sequence (P23219 24-599 R108Q) above, with Q85R, V458I counted along it

PGHS-1 R53H variant = PGHS-1 R53H variant (Homo sapiens, UniProt P23219, R53H); test: as above; format: biochemical; details: 37 °C, preincubation with 0.4-5.3 mM aspirin, average ± SD
Sequence of PGHS-1 R53H variant (P23219 24-599 R53H): as the sequence (P23219 24-599 R108Q) above, with R30H, Q85R counted along it

ovine PGHS-1 = details: cited from earlier work
[6] = target: T1, R108Q variant of human PGHS-1; test: Analysis of Ki and k2 values for aspirin; format: biochemical; details: 20 °C, aspirin potassium salt
PGHS-1 L237M variant [7] = target: T4, PGHS-1 L237M variant (Homo sapiens, UniProt P23219, L237M); test: Timed preincubation with aspirin, decay of surviving COX activity; format: biochemical; details: 37 °C, preincubation with 0.4-5.3 mM aspirin, average ± SD
T4 sequence (P23219 24-599 L237M): as the sequence (P23219 24-599 R108Q) above, with Q85R, L214M counted along it

PGHS-1 [8] = details: in blood ex vivo; cited from earlier work
PGHS-1 [9] = details: cited from earlier work
wildtype human PGHS-1 [10] = target: T2, wildtype human PGHS-1; test: Reversible COX inhibition by NS-398, substrate dependence of COX activity; format: biochemical; details: double reciprocal plot
PGHS-1 L237M variant [11] = target: T4, PGHS-1 L237M variant; test: COX kinetic parameters, oxygen uptake vs arachidonate; format: biochemical; details: read-out: COX Km (μM arachidonate), 0.025% Tween 20, 37 °C
PGHS-1 V481I variant [12] = target: T3, PGHS-1 V481I variant; test: as above; format: biochemical; details: read-out: COX Km (μM arachidonate), 0.025% Tween 20, 37 °C
[13] = target: T1, R108Q variant of human PGHS-1; test: as above; format: biochemical
wildtype human PGHS-1 [14] = target: T2, wildtype human PGHS-1; test: as above; format: biochemical; details: read-out: COX Km (μM arachidonate), WT, 37 °C, 100 μM HOOH

## O=C(O)c1ccccc1O [salicylic acid]
COX-1
  COX-1 inhibition: negligible COX-1 inhibitor

## CC(=O)Oc1ccccc1C(=O)O [aspirin, acetylsalicylic acid]
[1]; R108Q vs wildtype
  Lower aspirin reactivity compared to wildtype: 60%
[1]; R108Q, 37 °C
  k2'/aspirin (≈ k2/Ki) as percent of the wildtype value: 40%
[1]; R108Q, 37 °C, preincubation with 0.4-5.3 mM aspirin, average ± SD
  Aspirin reactivity (relative), k2'/[aspirin] normalized to wildtype value: 0.40 ± 0.05 (n = 7) p = 0.0001
Wildtype human PGHS-1 [2]
  Aspirin reactivity (relative), k2'/[aspirin] normalized to wildtype value: 1.00 ± 0.10 (n = 9)
[3]
  t1/2 of aspirin in blood: ~ 15 min
[4]
  Peak plasma aspirin level: 30 to 80 µM
  Time of plasma aspirin peak: ~ 30 min
PGHS-1 V481I variant [5]
  Aspirin reactivity (relative), k2'/[aspirin] normalized to wildtype value: 0.82 ± 0.10 (n = 9) p = 0.001
PGHS-1 R53H variant
  Aspirin reactivity (relative), k2'/[aspirin] normalized to wildtype value: 0.91 ± 0.07 (n = 9) p = 0.042
Ovine PGHS-1; ovine PGHS-1, 30°C
  Aspirin reactivity: 0.3 mM⁻¹ min⁻¹
Ovine PGHS-1; read-out: Ki for aspirin, PGHS-1 (ovine)
  Ki: ~20 mM and 14 to 20 mM
[6]
  Decrease in k2 (rate constant for acetyl group transfer) vs wildtype: 30%
  Increase in Ki for aspirin vs wildtype: 70%
  k2/Ki as percent of that for wildtype: 42%
PGHS-1 L237M variant [7]
  Aspirin reactivity (relative), k2'/[aspirin] normalized to wildtype value: 0.86 ± 0.05 (n = 9) p = 0.001
PGHS-1 [8]
  IC50: 0.002 mM

## CS(=O)(=O)Nc1ccc([N+](=O)[O-])cc1OC1CCCCC1 [NS-398]
PGHS-1 [9]
  Antagonism of PGHS-1 inactivation by aspirin: potent antagonist
PGHS-1 [9]; even at low arachidonate levels
  Effect on COX catalysis: lack effect on COX catalysis
Wildtype human PGHS-1 [10]
  Type of COX inhibition: reversible, competitive inhibitor

## CCCCC/C=C\C/C=C\C/C=C\C/C=C\CCCC(=O)O [arachidonate]
PGHS-1 L237M variant [11]
  Km: 1.8 ± 0.3 µM
PGHS-1 V481I variant [12]
  Km: 1.8 ± 0.2 µM
[13]
  Elevated arachidonate Km compared to wildtype: 1.9 fold
[13]; 0.165% Tween 20
  Km value above the wildtype value: 50%
[13]; read-out: COX Km (μM arachidonate), 0.025% Tween 20, 37 °C
  Km: 2.8 ± 0.4 µM
[13]; read-out: COX Km (μM arachidonate), 0.165% Tween 20, 37 °C
  Km: 29.7 ± 3.3 µM
[13]; standard conditions
  Increase in Km value vs wildtype: 86%
Wildtype human PGHS-1 [14]; 0.025% Tween 20
  Km: 1.5 ± 0.4 µM
Wildtype human PGHS-1 [14]; 0.165% Tween 20
  Km: 19.8 ± 3.7 µM
